Experimental data from article PMC9001978, “Determining the Effects of Differential Expression of GRKs and β-arrestins on CLR-RAMP Agonist Bias” (Frontiers in Physiology, 2022).

Key:
CLR-RAMP3 [1] = target: T1, CLR-RAMP3 (Homo sapiens, UniProt O60896+Q16602); design: method as in Clark et al., 2021; details: AM receptor 2 (AM2R), ref Clark et al., 2021; cited from earlier work
CLR-RAMP1 [2] = target: T2, CLR-RAMP1 (Homo sapiens, UniProt O60894+Q16602); assay: Internalisation of CLR-RAMP1 (BRET CLR-Nluc / RIT-Venus); details: HEK293T, CLR-Nluc + FLAG-RAMP1, RIT-Venus BRET; mean ± SEM, n = 3-4
T2 sequence (Q16602 23-461): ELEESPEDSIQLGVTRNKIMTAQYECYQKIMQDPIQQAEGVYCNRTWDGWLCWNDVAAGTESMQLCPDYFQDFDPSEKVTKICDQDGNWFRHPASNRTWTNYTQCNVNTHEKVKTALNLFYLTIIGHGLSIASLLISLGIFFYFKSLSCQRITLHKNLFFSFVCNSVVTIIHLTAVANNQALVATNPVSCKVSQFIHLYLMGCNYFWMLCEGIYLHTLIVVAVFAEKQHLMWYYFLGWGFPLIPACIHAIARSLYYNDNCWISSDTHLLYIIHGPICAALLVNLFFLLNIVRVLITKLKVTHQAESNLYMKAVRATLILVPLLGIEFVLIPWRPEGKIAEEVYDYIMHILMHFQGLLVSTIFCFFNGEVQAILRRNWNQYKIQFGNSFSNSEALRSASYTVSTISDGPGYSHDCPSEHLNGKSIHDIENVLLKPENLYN
T2 sequence (O60894 27-148): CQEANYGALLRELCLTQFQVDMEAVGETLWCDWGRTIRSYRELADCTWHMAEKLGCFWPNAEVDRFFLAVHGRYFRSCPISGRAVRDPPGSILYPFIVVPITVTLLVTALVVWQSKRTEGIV

CLR-RAMP3 [3] = target: T1, CLR-RAMP3; assay: Internalisation of CLR-RAMP3 (BRET CLR-Nluc / RIT-Venus); details: HEK293T, CLR-Nluc + FLAG-RAMP3, RIT-Venus BRET; mean ± SEM, n = 4-5
CLR-RAMP2 [4] = target: T3, CLR-RAMP2 (Homo sapiens, UniProt O60895+Q16602); assay: cAMP accumulation at CLR-RAMP2
T3 sequence (Q16602 23-461): as the sequence (Q16602 23-461) above
T3 sequence (O60895 43-175): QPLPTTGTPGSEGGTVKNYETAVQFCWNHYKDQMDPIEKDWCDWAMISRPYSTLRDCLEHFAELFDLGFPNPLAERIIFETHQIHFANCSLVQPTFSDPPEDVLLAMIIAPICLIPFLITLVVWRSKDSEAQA

CLR-RAMP2 [5] = target: T3, CLR-RAMP2; assay: β-arrestin1 recruitment to CLR-RAMP2 (BRET); details: HEK293T, n = 3
CLR-RAMP1 [6] = target: T2, CLR-RAMP1; assay: β-arrestin1 recruitment to CLR-RAMP1 (BRET); details: HEK293T, n = 3
CLR-RAMP2 [7] = target: T3, CLR-RAMP2; assay: β-arrestin2 recruitment to CLR-RAMP2 (BRET); details: HEK293T, n = 3
CLR-RAMP2 [8] = target: T3, CLR-RAMP2; assay: Internalisation of CLR-RAMP2 (BRET CLR-Nluc / RIT-Venus); details: HEK293T, CLR-Nluc + FLAG-RAMP2, RIT-Venus BRET; mean ± SEM, n = 3-4
CLR-RAMP1 [9] = target: T2, CLR-RAMP1; assay: β-arrestin2 recruitment to CLR-RAMP1 (BRET); details: HEK293T, n = 3

T1 sequence (Q16602 23-461): as the sequence (Q16602 23-461) above
T1 sequence (O60896 24-148): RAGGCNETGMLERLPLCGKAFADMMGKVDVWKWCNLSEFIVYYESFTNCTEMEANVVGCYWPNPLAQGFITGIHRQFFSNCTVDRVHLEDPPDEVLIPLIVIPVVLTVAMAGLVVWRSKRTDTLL

Emax, internalisation (CLR-RAMP1 [2]): ~-63 ± 41 BRET units (x10^-3) | Emax, internalisation (CLR-RAMP3 [3]): ~-8 ± 3 BRET units (x10^-3) | Effect of barbadin pretreatment on cAMP accumulation (CLR-RAMP2 [4]; AM2 at CLR-RAMP2): far smaller | Change in cAMP potency on β-arrestin2 overexpression (CLR-RAMP2 [4]; CLR-RAMP2, HEK293T, p = 0.02): significant decrease in potency | Emax, β-arrestin1 recruitment (CLR-RAMP2 [5]; CLR-Nluc + FLAG-RAMP2 + β-arrestin1-YFP, BRET, mean ± SEM): 3 ± 1 BRET units (x10^-3) | Emax, β-arrestin1 recruitment (CLR-RAMP2 [5]; GRK2 overexpressed): 7 ± 1 BRET units (x10^-3) | Emax, β-arrestin1 recruitment (CLR-RAMP2 [5]; GRK3 overexpressed): 11 ± 1 BRET units (x10^-3) | Emax, β-arrestin1 recruitment (CLR-RAMP2 [5]; GRK4 overexpressed): 4 ± 1 BRET units (x10^-3) | Emax, β-arrestin1 recruitment (CLR-RAMP2 [5]; GRK series: Vector): 3 ± 1 BRET units (x10^-3) | Emax, β-arrestin1 recruitment (CLR-RAMP1 [6]; CLR-Nluc + FLAG-RAMP1 + β-arrestin1-YFP, BRET, mean ± SEM): ~63 ± 27 BRET units (x10^-3) | Emax, β-arrestin1 recruitment (CLR-RAMP1 [6]; GRK2 overexpressed): ~46 ± 5 BRET units (x10^-3) | Emax, β-arrestin1 recruitment (CLR-RAMP1 [6]; GRK3 overexpressed): ~32 ± 2 BRET units (x10^-3) | Emax, β-arrestin1 recruitment (CLR-RAMP1 [6]; GRK4 overexpressed): ~28 ± 7 BRET units (x10^-3) | Emax, β-arrestin1 recruitment (CLR-RAMP1 [6]; GRK6 overexpressed): ~10 ± 6 BRET units (x10^-3) | Emax, β-arrestin1 recruitment (CLR-RAMP1 [6]; GRK series: Vector): ~63 ± 26 BRET units (x10^-3) | Emax, β-arrestin2 recruitment (CLR-RAMP2 [7]; CLR-Nluc + FLAG-RAMP2 + β-arrestin2-YFP, BRET, mean ± SEM): 9 ± 1 BRET units (x10^-3) | Emax, β-arrestin2 recruitment (CLR-RAMP2 [7]; GRK4 overexpressed): 10 ± 2 BRET units (x10^-3) | Emax, β-arrestin2 recruitment (CLR-RAMP2 [7]; GRK series: Vector): 9 ± 1 BRET units (x10^-3) | Emax, internalisation (CLR-RAMP2 [8]): ~-20 ± 18 BRET units (x10^-3) | Emax, β-arrestin2 recruitment (CLR-RAMP1 [9]; CLR-Nluc + FLAG-RAMP1 + β-arrestin2-YFP, BRET, mean ± SEM): ~98 ± 21 BRET units (x10^-3) | Emax, β-arrestin2 recruitment (CLR-RAMP1 [9]; GRK2 overexpressed): ~54 ± 47 BRET units (x10^-3) | Emax, β-arrestin2 recruitment (CLR-RAMP1 [9]; GRK3 overexpressed): ~49 ± 8 BRET units (x10^-3) | Emax, β-arrestin2 recruitment (CLR-RAMP1 [9]; GRK4 overexpressed): ~45 ± 4 BRET units (x10^-3) | Emax, β-arrestin2 recruitment (CLR-RAMP1 [9]; GRK series: Vector): ~98 ± 21 BRET units (x10^-3)
SMILES: CSCC[C@H](NC(=O)[C@H](CC(C)C)NC(=O)[C@H](CCC(N)=O)NC(=O)[C@H](Cc1c[nH]c2ccccc12)NC(=O)[C@H](CC(C)C)NC(=O)[C@H](CCCNC(=N)N)NC(=O)[C@H](Cc1c[nH]cn1)NC(=O)[C@H](CO)NC(=O)[C@H](CC(C)C)NC(=O)[C@H](CC(N)=O)NC(=O)[C@H](CCC(N)=O)NC(=O)[C@@H](NC(=O)[C@H](CCC(N)=O)NC(=O)[C@@H]1CSSC[C@H](NC(=O)CNC(=O)[C@@H](NC(=O)[C@H](CCCNC(=N)N)NC(=O)[C@H](CC(C)C)NC(=O)[C@H](CC(C)C)NC(=O)[C@H](CCC(N)=O)NC(=O)[C@H](C)NC(=O)[C@H](CCC(N)=O)NC(=O)[C@@H](N)[C@@H](C)O)C(C)C)C(=O)N[C@@H](C(C)C)C(=O)N[C@@H](CC(C)C)C(=O)NCC(=O)N[C@@H]([C@@H](C)O)C(=O)N1)C(C)C)C(=O)NCC(=O)N1CCC[C@H]1C(=O)N[C@@H](C)C(=O)NCC(=O)N[C@@H](CCCNC(=N)N)C(=O)N[C@@H](CCC(N)=O)C(=O)N[C@@H](CC(=O)O)C(=O)N[C@@H](CO)C(=O)N[C@@H](C)C(=O)N1CCC[C@H]1C(=O)N[C@H](C(=O)N[C@@H](CC(=O)O)C(=O)N1CCC[C@H]1C(=O)N[C@@H](CO)C(=O)N[C@@H](CO)C(=O)N1CCC[C@H]1C(=O)N[C@@H](Cc1c[nH]cn1)C(=O)N[C@@H](CO)C(=O)N[C@@H](Cc1ccc(O)cc1)C(N)=O)C(C)C [AM2, adrenomedullin 2]
Rank order of potency (CLR-RAMP3 [1]): equipotent agonists
